Experimental data: US8569315B2, “Synergistic antimicrobial composition” (priority 2009, dated 2013)

Assays:
Assay type in all cases: cell-based
[1] = system: Gleocapsa sp.; test: Algal efficacy testing, modified ASTM 5589, paint film; details: for Total conc: total biocide in paint chosen as minimum inhibitory concentration, dry film; for Total conc / % inhibition: 3 weeks
Method: (§1) Sample preparation: Samples of white acrylic latex paint free of biocides were prepared in 50 ml aliquots. Each biocide was post added to give the necessary active ingredient concentration in the paint. The total biocides concentrations tested were 750, 1500, 2500 and 5000 ppm. After biocides addition, each sample was hand mixed for a minimum of 30 sec, followed by a 3 min run on the paint shaker (RED DEVIL). Each of the paint samples as well as a control sample (containing no biocide) were used to prepare films on black plastic-vinyl chloride/acetate copolymer panels (LENETA, Mahwah, N.J.) using a 3 mil bird bar applicator. The panels were thoroughly dried for 5 days avoiding direct exposure to sunlight. Square discs (15 mm^2) were cut out from each panel and were used as the substrate for fungal and algal efficacy tests. This sample size allowed for an agar border when the sample disc was placed into the well of the test plate.
(§2) The appropriate media (BOLD'S 3N for Chlorophytes, BG-11 for Cyanobacteria, and PDA for fungi) were used to support microbial growth. The test plates were maintained at room temp (25° C.-26° C.), in a cycled light-dark environment, for 3 weeks for algae. Plates for fungal challenge tests were maintained at 30 C for three weeks. At the end of incubation period the samples were scored for percent area covered by visible microbial growth.
(§3) ASTM 5589 is a standard accelerated test method for determining resistance of various coatings (including paints) to algal defacement. To accommodate for high-throughput screening, this method was scaled down from petri plates to 12-well plates. A single coupon was placed with a pair of sterile forceps at the center of the agar plug (on top) with the painted surface facing upwards. Each well was inoculated with 150 μl of organism (1×10^6 cfu/ml) making sure that the whole surface (paint film as well as the agar surrounding it) was evenly covered. The plates were incubated at room temp (25° C.-26° C.) with cyclic exposure to light (OTT-Lite model # OTL4012P, 40 Watt, 26 KLumen) and dark phases, for a period of three weeks. The total area covered was evaluated at the end of each week after the second week according to percent area covered in 5% increments. While rating the plates, notations were made for zones of inhibition.
(§4) The SI is calculated based on F. C. Kull et.

[2] = system: Nostoc commune; test: as above; details: for Total conc: total biocide in paint chosen as minimum inhibitory concentration, dry film; for Total conc / % inhibition: 3 weeks
Method: as §1, §2, §3, §4

[3] = system: Chlorella sp. UTEX + Chlorella kessleri; test: as above; details: for Total conc: total biocide in paint chosen as minimum inhibitory concentration, dry film; for Total conc / % inhibition: 3 weeks
Method: as §1, §2, §3, §4

[4] = system: Calothrix parientina; test: as above; details: for Total conc: total biocide in paint chosen as minimum inhibitory concentration, dry film; for Total conc / % inhibition: 3 weeks
Method: as §1, §2, §3, §4

[5] = system: Oscillatoria sp.; test: as above; details: for Total conc: total biocide in paint chosen as minimum inhibitory concentration, dry film; for Total conc / % inhibition: 3 weeks
Method: as §1, §2, §3, §4

[6] = system: Trentepohlia aurea + Trentepohlia odorata; test: as above; details: for Total conc: total biocide in paint chosen as minimum inhibitory concentration, dry film; for Total conc / % inhibition: 3 weeks; for % inhibition: total conc 1500 ppm in paint
Method: as §1, §2, §3, §4

[7] = system: Trichoderma viride; test: Fungal efficacy testing, modified ASTM 5590, paint film; details: for Total conc: total biocide in paint chosen as minimum inhibitory concentration, dry film; for Total conc / % inhibition: 3 weeks
Method: as §1, §2
(§5) ASTM 5590 is a standard accelerated test method for determining resistance of various coatings (including paints) to fungal defacement. To accommodate for high-throughput screening, this method was scaled down from petri plates to 12-well plates. To set up the test, an agar plug was placed at the bottom of each well of the sterile 12-well plate. A single coupon was placed with a pair of sterile forceps at the center of the agar plug (on top) with the painted surface facing upwards. Each well was inoculated with 150 μl of organism (1×10^6 cfu/ml) making sure that the whole surface (paint film as well as the agar surrounding it) was evenly covered. The plates were incubated at 30° C. in presence of moisture, for a period of three weeks. The total percent area covered was evaluated and recorded at the end of each week after the 2nd week and recorded in increments of 5%.
as §4

[8] = system: Aspergillus niger; test: as above; details: for Total conc: total biocide in paint chosen as minimum inhibitory concentration, dry film; for Total conc / % inhibition: 3 weeks; for % inhibition: total conc 1500 ppm in paint
Method: as §1, §2, §5, §4

[9] = system: Penicillium funiculosum; test: as above; details: for Total conc: total biocide in paint chosen as minimum inhibitory concentration, dry film; for Total conc / % inhibition: 3 weeks
Method: as §1, §2, §5, §4

[10] = system: Aureobasidium pullulans; test: as above; details: for Total conc: total biocide in paint chosen as minimum inhibitory concentration, dry film; for Total conc / % inhibition: 3 weeks
Method: as §1, §2, §5, §4

[11] = system: Alternaria alternata; test: as above; details: for Total conc: total biocide in paint chosen as minimum inhibitory concentration, dry film; for Total conc / % inhibition: 3 weeks
Method: as §1, §2, §5, §4

[12] = system: Stachybotris chartarum; test: as above; details: for Total conc: total biocide in paint chosen as minimum inhibitory concentration, dry film
Method: as §1, §2, §5, §4

[13] = system: Cladosporium herbarum; test: as above; details: for Total conc: total biocide in paint chosen as minimum inhibitory concentration, dry film; for Total conc / % inhibition: 3 weeks
Method: as §1, §2, §5, §4

[14] = total conc 2500 ppm in paint, Table 3
[15] = total conc 1500 ppm in paint, Table 1
[16] = total conc 1500 ppm in paint, Table 3
[17] = total conc 750 ppm in paint, Table 3
[18] = total conc 1500 ppm in paint, Table 2
[19] = total conc 1500 ppm in paint, Table 4
[20] = total conc 750 ppm in paint, Table 4
[21] = total conc 2500 ppm in paint, Table 4

Cc1ccn2nc(S(=O)(=O)Nc3c(F)cccc3F)nc2n1 [Flumetsulam]
80%: inhibition at 2500 ppm ([3]; 504 h) | inhibition at 1500 ppm ([5]; 504 h) | inhibition at 1500 ppm ([9]; Talaromyces funiculosus, 504 h)
40%: inhibition at 2500 ppm ([8]; Aspergillus niger, 504 h)
85%: inhibition at 1500 ppm ([2]; Nostoc commune, 504 h) | inhibition at 1500 ppm ([6]; 504 h) | inhibition at 1500 ppm ([13]; Cladosporium herbarum, 504 h)
1500 ppm: Total conc ([1]; Table 1) | Total conc ([2]; Table 1) | Total conc ([5]; Table 1) | Total conc ([6]; Table 1) | Total conc ([9]; Table 2) | Total conc ([13]; Table 2)
90%: inhibition at 1500 ppm ([1]; 504 h) | inhibition at 2500 ppm ([4]; 504 h) | inhibition at 2500 ppm ([10]; Aureobasidium pullulans, 504 h) | inhibition at 2500 ppm ([11]; Alternaria alternata, 504 h)
2500 ppm: Total conc ([3]; Table 1) | Total conc ([4]; Table 1) | Total conc ([7]; Table 2) | Total conc ([8]; Table 2) | Total conc ([10]; Table 2) | Total conc ([11]; Table 2) | Total conc ([12]; 3 weeks, Table 2)
70%: inhibition at 2500 ppm ([7]; Trichoderma viride, 504 h) | inhibition at 2500 ppm ([12]; 504 h)

CCCCNC(=O)OCC#CI [IPBC, 3-iodo-2-propynyl-butylcarbamate]
80%: % inhibition ([1]; total conc 750 ppm in paint, Table 1) | % inhibition [2, 15] | % inhibition [2, 16] | % inhibition ([3]; total conc 2500 ppm in paint, Table 1) | % inhibition [3, 14] | % inhibition [4, 17] | % inhibition [4, 15] | % inhibition [5, 15] | % inhibition [5, 14] | % inhibition ([6]; Table 1) | % inhibition ([6]; Table 3) | % inhibition [13, 19]
750 ppm: Total conc ([1]; Table 1) | Total conc ([4]; Table 3) | Total conc ([10]; Table 4)
90%: % inhibition [9, 18] | % inhibition [10, 18] | % inhibition [13, 18]
60%: % inhibition ([8]; Table 2) | % inhibition [10, 20]
1500 ppm: Total conc ([2]; Table 1) | Total conc ([2]; Table 3) | Total conc ([4]; Table 1) | Total conc ([5]; Table 1) | Total conc ([6]; Table 1) | Total conc ([6]; Table 3) | Total conc ([7]; Table 2) | Total conc ([7]; Table 4) | Total conc ([8]; Table 2) | Total conc ([8]; Table 4) | Total conc ([9]; Table 2) | Total conc ([9]; Table 4) | Total conc ([10]; Table 2) | Total conc ([11]; Table 2) | Total conc ([13]; Table 2) | Total conc ([13]; Table 4)
85%: % inhibition [7, 19] | % inhibition ([8]; Table 4) | % inhibition [11, 18]
70%: % inhibition [9, 19]
65%: % inhibition ([12]; total conc 2500 ppm in paint, 3 weeks, Table 2)
2500 ppm: Total conc ([1]; Table 3) | Total conc ([3]; Table 1) | Total conc ([3]; Table 3) | Total conc ([5]; Table 3) | Total conc ([11]; Table 4) | Total conc ([12]; 3 weeks, Table 2)
50%: % inhibition [1, 14] | % inhibition [11, 21]
75%: % inhibition [7, 18]

CCOc1nc(F)cc2nc(S(=O)(=O)Nc3c(Cl)cccc3Cl)nn12 [Diclosulam]
60%: % inhibition [1, 16]
2500 ppm: Total conc ([2]; Table 3) | Total conc ([9]; Table 4) | Total conc ([11]; Table 4) | Total conc ([13]; Table 4)
80%: % inhibition [4, 17] | % inhibition [5, 17] | % inhibition ([6]; Table 3) | % inhibition [7, 20] | % inhibition ([8]; Table 4) | % inhibition [13, 21]
35%: % inhibition [10, 19]
750 ppm: Total conc ([3]; Table 3) | Total conc ([4]; Table 3) | Total conc ([5]; Table 3) | Total conc ([7]; Table 4)
45%: % inhibition [9, 21]
75%: % inhibition [2, 14] | % inhibition [3, 17]
1500 ppm: Total conc ([1]; Table 3) | Total conc ([6]; Table 3) | Total conc ([8]; Table 4) | Total conc ([10]; Table 4)
0%: % inhibition [11, 21]
